Measured values taken from patent US20230157996A1, “SMALL-MOLECULE INHIBITOR TARGETING EB VIRUS NUCLEAR ANTIGEN PROTEIN, PREPARATION METHOD AND USE THEREOF” (priority 2020, published 2023).

Each compound was assayed on C666-1 cells (assay: C666-1 cell viability single concentration (50 μM) inhibition rate (Resazurin)). Details: 50 μM compound, 72 hours, C666-1 cells.
Format: cell-based
Outline: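 EBV-positive C666-1 cells (5×10^3/well), pre-cultured 24 h, were exposed to compound at 50 μmol/L final for 72 h at 37° C, 5% CO2, in duplicate. Viability by resazurin (3 h, ex 560/em 590 nm); inhibition rate computed relative to DMSO control and medium-only blank.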

Structure (SMILES) | C666-1 cell viability single concentration (50 μM) inhibition rate, Ratio* (Inh %)
O=C(O)c1cccc(N2CC(Oc3ccc([N+](=O)[O-])cc3)C2)c1-n1cccc1 [Example 301, 3-(3-(4-nitrophenoxy)azetidin-1-yl)-2-(1H-pyrrol-1-yl)benzoic acid] | ++++ (>50% ++++)

Same assay, conditions: Homo sapiens, C6661, 72 h, 50 μM compound, 72 hours, C666-1 cells; read-out: C666-1 cell viability single concentration (50 μM) inhibition rate, Ratio* (Inh %)

Structure (SMILES) | inhibition at 50 µM [%]
COC(=O)c1cccc(N2CC3(C2)CN(c2cccc(C(=O)OC)c2N)C3)c1 [Compound 15, Methyl 2-amino-3-(6-(3-(methoxycarbonyl)phenyl)-2,6-diazaspiro[3.3]heptan-2-yl)benzoate] | < 10
Nc1ccc(OC2CN(c3cccc(C(=O)O)c3-n3cccc3)C2)cc1 [Example 254, 3-(3-(4-aminophenoxy)azetidin-1-yl)-2-(1H-pyrrol-1-yl)benzoic acid] | < 10
CCC(=O)c1ccc(OC2CN(c3cccc(C(=O)O)c3-n3cccc3)C2)cc1 [Example 215, 3-(3-(4-propionylphenoxy)azetidin-1-yl)-2-(1H-pyrrol-1-yl)benzoic acid] | < 10
COC(=O)c1cccc(N2CC(OC(=O)NC3CC3)C2)c1-n1cccc1 [Example 155, Methyl 3-(3-((cyclopropylcarbamoyl)oxy)azetidin-1-yl)-2-(1H-pyrrol-1-yl)benzoate] | 10 to 30
CCNC(=S)NC1CN(c2cccc(C(=O)O)c2-n2cccc2)C1 [Example 173, 3-(3-(3-ethylthioureido)azetidin-1-yl)-2-(1H-pyrrol-1-yl)benzoic acid] | < 10
COC(=O)c1cccc(N2CC(OC(=S)Nc3ccc(Cl)cc3Cl)C2)c1-n1cccc1 [Example 162, Methyl 3-(3-(((2,4-dichlorophenyl)thiocarbamoyl)oxy)azetidin-1-yl)-2-(1H-pyrrol-1-yl)benzoate] | 10 to 30
COC(=O)c1cccc(N2CC(Oc3ccc(C(=O)Nc4ccc(F)cc4)cc3)C2)c1-n1cccc1 [Example 267, Methyl 3-(3-(4-((4-fluorophenyl)carbamoyl)phenoxy)azetidin-1-yl)-2-(1H-pyrrol-1-yl)benzoate] | < 10
O=C(O)c1cccc(N2CC(Oc3ccc(CO)cc3)C2)c1-c1ccc2nsnc2c1 [Compound 46] | < 10
O=C(COC1CN(c2cccc(C(=O)O)c2-n2cccc2)C1)Nc1ccccc1 [Example 145, 3-(3-(2-oxo-2-(phenylamino)ethoxy)azetidin-1-yl)-2-(1H-pyrrol-1-yl)benzoic acid] | < 10
CCCOc1ccc(OC2CN(c3cccc(C(=O)O)c3-n3cccc3)C2)cc1 [Example 106, 3-(3-(4-propoxyphenoxy)azetidin-1-yl)-2-(1H-pyrrol-1-yl)benzoic acid] | < 10
O=C(O)c1cccc(N2CC(Oc3ccc(CO)cc3)C2)c1-n1cccn1 [Compound 70, 3-(3-(4-(hydroxymethyl)phenoxy)azetidin-1-yl)-2-(1H-pyrazol-1-yl)benzoic acid] | < 10
COC(=O)c1cccc(N2CC(Oc3ccc(CO)cc3)C2)c1-c1ccco1 [Compound 47] | 30 to 50
O=C(Nc1ccc(OC2CN(c3cccc(C(=O)O)c3-n3cccc3)C2)cc1)c1cccs1 [Example 123, 2-(1H-pyrrol-1-yl)-3-(3-(4-(thiophene-2-formamido)phenoxy)azetidin-1-yl)benzoic acid] | < 10
Nc1c(C(=O)O)cccc1N1CC2(CN(c3cccc(C(=O)O)c3)C2)C1 [Compound 16, 2-amino-3-(6-(3-carboxylphenyl)-2,6-diazaspiro[3.3]heptan-2-yl)benzoic acid] | < 10
COC(=O)c1cccc(N2CC3(CN(c4ccc(N)cc4)C3)C2)c1N [Compound 13, Methyl 2-amino-3-(6-(4-aminophenyl)-2,6-diazaspiro[3.3]heptan-2-yl)benzoate] | > 50
CN(C)CCNC(=O)c1cccc(N2CC(Oc3ccc(CO)cc3)C2)c1-n1cccc1 [Example 396, N-(2-dimethylamino)ethyl-3-(3-(4-(hydroxymethyl)phenoxy)azetidin-1-yl)-2-(1H-pyrrol-1-yl)benzamide] | < 10
O=C(O)c1cccc(N2CC(Oc3cccc(Oc4ccccc4)c3)C2)c1-n1cccc1 [Example 223, 3-(3-(3-phenoxyphenoxy)azetidin-1-yl)-2-(1H-pyrrol-1-yl)benzoic acid] | < 10
O=C(O)c1cccc(N2CC(Oc3cccnc3)C2)c1-n1cccc1 [Example 260, 3-(3-(pyridin-3-yloxy)azetidin-1-yl)-2-(1H-pyrrol-1-yl)benzoic acid] | < 10

Structure (SMILES) | inhibition at 50 µM [%]
COC(=O)c1cccc(N2CC(Oc3cccc(OC)c3)C2)c1-n1cccc1 [Compound 79, Methyl 3-(3-(3-methoxyphenoxy)azetidin-1-yl)-2-(1H-pyrrol-1-yl)benzoate] | 10 to 30
COC(=O)c1cccc(N2CC(Oc3ccc(Oc4ccc(Cl)cc4)cc3)C2)c1-n1cccc1 [Example 194, Methyl 3-(3-(4-(4-chlorophenoxy)phenoxy)azetidin-1-yl)-2-(1H-pyrrol-1-yl)benzoate] | < 10
COC(=O)c1cccc(N2CC(Oc3cccnc3)C2)c1-n1cccc1 [Example 259, Methyl 3-(3-(pyridin-3-yloxy)azetidin-1-yl)-2-(1H-pyrrol-1-yl)benzoate] | 10 to 30
N#Cc1cc(-c2c(C(=O)O)cccc2N2CC(Oc3ccc(CO)cc3)C2)ccc1F [Example 281, 3′-cyano-4′-fluoro-6-(3-(4-(hydroxymethyl)phenoxy)azetidin-1-yl)-[1,1′-biphenyl]-2-formic acid] | < 10
COC(=O)c1cccc(C#CN(CC2CCN(C)CC2)S(=O)(=O)c2ccc(C)cc2)c1-n1cccc1 [Example 318, Methyl 3-(((4-methyl-N-((1-methylpiperidin-4-yl)methyl)phenyl)sulfonamido)ethynyl)-2-(1H-pyrrol-1-yl)benzoate] | > 50
COC(=O)c1cccc(N2CC(Oc3ccc(Sc4ccccc4)cc3)C2)c1-n1cccc1 [Example 208, Methyl 3-(3-(4-(thiophenyl)phenoxy)azetidin-1-yl)-2-(1H-pyrrol-1-yl)benzoate] | < 10
COC(=O)c1cccc(N2CC(Oc3ccc(CO)cc3)C2)c1-c1ccc2cc[nH]c2c1 [Compound 39, Methyl 3-(3-(4-(hydroxymethyl)phenoxy)azetidin-1-yl)-2-(1H-indol-6-yl)benzoate] | 30 to 50
COC(=O)c1cccc(C#CN(Cc2ccc(C)cc2)S(=O)(=O)c2ccc(C)cc2)c1-n1cccc1 [Example 342] | < 10
O=C(O)c1cccc(N2CC(Oc3ccc(Sc4ccccc4)cc3)C2)c1-n1cccc1 [Example 209, 3-(3-(4-(thiophenyl)phenoxy)azetidin-1-yl)-2-(1H-pyrrol-1-yl)benzoic acid] | 10 to 30
COC(=O)c1cccc(N2CC(OC(=O)Nc3ccc(C4CNCCO4)c(F)c3)C2)c1-n1cccc1 (stereo not shown) [Example 151, Methyl 3-(3-(((3-fluoro-4-(morpholin-2-yl)phenyl)carbamoyl)oxy)azetidin-1-yl)-2-(1H-pyrrol-1-yl)benzoate] | 10 to 30
COC(=O)c1cccc(N2CC(Sc3ccc(CO)cc3)C2)c1-n1cccc1 [Example 352, Methyl 3-(3-((4-(hydroxymethyl)phenyl)thio)azetidin-1-yl)-2-(1H-pyrrol-1-yl)benzoate] | > 50
O=C(O)c1cccc(N2CC3(C2)CN(c2cccc(C(=O)O)c2-n2cccc2)C3)c1 [Compound 18, 3-(6-(3-carboxylphenyl)-2,6-diazaspiro[3.3]heptan-2-yl)-2-(1H-pyrrol-1-yl)benzoic acid] | < 10
O=C(O)c1cccc(N2CC(OCc3cscn3)C2)c1-n1cccc1 [Example 141] | < 10
CCOc1ccc(OC2CN(c3cccc(C(=O)OC)c3-n3cccc3)C2)cc1 [Example 99, Methyl 3-(3-(4-ethoxyphenoxy)azetidin-1-yl)-2-(1H-pyrrol-1-yl)benzoate] | < 10
COC(=O)c1cccc(N2CC(Oc3cccc(NC(=O)Nc4ccc(OC(F)(F)F)cc4)c3)C2)c1-n1cccc1 [Example 295, Methyl 3-(3-(3-(3-(4-(trifluoromethoxy)phenyl)ureido)phenoxy)azetidin-1-yl)-2-(1H-pyrrol-1-yl)benzoate] | > 50
O=C(O)c1cccc(N2CC(Oc3ccc(CO)cc3)C2)c1-c1ccc2ccoc2c1 [Compound 52] | < 10
COC(=O)c1cccc(C#CN(Cc2ccco2)S(=O)(=O)c2ccc(C)cc2)c1-n1cccc1 [Example 314, Methyl 3-(((N-(furan-2-yl-methyl)-4-methylphenyl)sulfonamido)ethynyl)-2-(1H-pyrrol-1-yl)benzoate] | < 10
COC(=O)c1cccc(N2CC(Oc3ccc(OC(F)(F)F)cc3)C2)c1-n1cccc1 [Compound 83, Methyl 2-(1H-pyrrol-1-yl)-3-(3-(4-(trifluoromethoxy)phenoxy)azetidin-1-yl)benzoate] | > 50

Same assay, conditions: Homo sapiens, C6661, 72 h, read-out: C666-1 cell viability single concentration (50 μM) inhibition rate, Ratio* (Inh %)

Structure (SMILES) | inhibition at 50 µM [%]
O=C(O)c1cccc(C#CN(Cc2ccccc2)S(=O)(=O)c2ccccc2)c1-n1cccc1 [Example 341, 3-((N-benzyl-N-phenylsulfonamido)ethynyl)-2-(1H-pyrrol-1-yl)benzoic acid] | < 10
Cc1ccc(S(=O)(=O)N(C#Cc2cccc(C(=O)O)c2-n2cccc2)Cc2ccc3c(ccn3C)c2)cc1 [Example 317, Lithium 3-(((4-methyl-N-((1-methyl-1H-indol-5-yl)methyl)phenyl)sulfonamido)ethynyl)-2-(1H-pyrrol-1-yl)benzoate] | 10 to 30
O=C(O)c1cccc(C#CN(Cc2ccccc2)S(=O)(=O)c2cccs2)c1-n1cccc1 [Example 323, Lithium 3-((N-benzylthiophen-2-sulfonamido)ethynyl)-2-(1H-pyrrol-1-yl)benzoate] | < 10
